US7196110B2, “N-substituted tricyclic 3-aminopyrazoles as inhibitors for the treatment of cell proliferative disorders” (Janssen Phamaceutica N.V., priority 2002, dated 2007)

Biological target: T1, PDGF-receptor beta enzyme comprising the tyrosine kinase domain (Homo sapiens, UniProt P09619)
T1 construct: from amino acid 545 to 1106 of GenBank Access NO: AAA36427
Assay: Inhibition of PDGF-receptor kinase activity (cell-free, PLC1 peptide, 33P Flashplate)
Format: biochemical
Details: PDGF-R kinase activity; for inhibition at 10 µM: compound at 10 uM, read-out: Percent Inhibition @ 10 uM; for IC50: read-out: IC50
How it was run: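 Recombinant kinase domain (aa 545–1106) phosphorylated a biotinylated PLC1 peptide with 5 μM ATP plus 33P-γ-ATP, in Tris pH 8, MgCl2, Na3VO4 and 1 mM DTT, for 60 min at 30 °C. Retained 33P was counted after washing. IC50 is the concentration halving activity versus no-inhibitor reactions.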

T1 sequence (P09619 545-1106): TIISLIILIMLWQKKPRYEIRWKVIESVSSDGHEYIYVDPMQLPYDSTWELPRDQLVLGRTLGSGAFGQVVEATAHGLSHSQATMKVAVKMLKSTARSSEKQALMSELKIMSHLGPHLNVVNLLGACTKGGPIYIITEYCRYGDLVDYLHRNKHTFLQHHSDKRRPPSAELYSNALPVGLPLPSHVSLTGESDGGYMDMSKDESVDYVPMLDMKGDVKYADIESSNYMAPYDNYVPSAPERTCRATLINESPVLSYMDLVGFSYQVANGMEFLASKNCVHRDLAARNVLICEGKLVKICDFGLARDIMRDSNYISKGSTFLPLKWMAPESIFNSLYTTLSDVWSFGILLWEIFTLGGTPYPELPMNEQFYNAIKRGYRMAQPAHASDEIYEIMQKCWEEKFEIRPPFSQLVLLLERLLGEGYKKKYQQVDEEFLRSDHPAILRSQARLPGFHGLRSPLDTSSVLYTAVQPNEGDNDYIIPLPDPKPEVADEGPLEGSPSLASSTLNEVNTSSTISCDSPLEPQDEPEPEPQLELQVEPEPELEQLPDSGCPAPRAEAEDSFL

SMILES | inhibition at 10 µM | IC50
CCOC(=O)Cn1nc2c(c1Nc1cccc(F)c1)Cc1cc(OC)c(OC)cc1-2 [Compound 510, [3-(3-Fluoro-phenylamino)-6,7-dimethoxy-4H-indeno[1,2-c]pyrazol-2-yl]-acetic acid ethyl ester] | 57% | 26600 nM
COc1cc2c(cc1OC)-c1c(c(Nc3cccc(F)c3)nn1C(=O)Oc1ccccc1Cl)C2 [Compound 513, 3-(3-Fluoro-phenylamino)-6,7-dimethoxy-4H-indeno[1,2-c]pyrazole-1-carboxylic acid 2-chloro-phenyl ester] | 86% | 773 nM
CCC1c2cc(OC)c(OC)cc2-c2nn(C(=O)COC)c(Nc3cccc(Br)c3)c21 (centres unmarked) [Compound 515, 1-[3-(3-Bromo-phenylamino)-4-ethyl-6,7-dimethoxy-4H-indeno[1,2-c]pyrazol-2-yl]-2-methoxy-ethanone] | 90% | 136 nM
COc1cc2c(cc1OC)-c1c(c(Nc3cccc(F)c3)nn1C(=O)NCCN(C)C)C2 [Compound 517, 3-(3-Fluoro-phenylamino)-6,7-dimethoxy-4H-indeno[1,2-c]pyrazole-1-carboxylic acid (2-dimethylamino-ethyl)-amide] | 75.5% | 1790 nM
CCC1c2cc(OC)c(OC)cc2-c2nn(C(=O)COCc3ccccc3)c(Nc3cccc(Br)c3)c21 (centres unmarked) [Compound 518, 2-Benzyloxy-1-[3-(3-bromo-phenylamino)-4-ethyl-6,7-dimethoxy-4H-indeno[1,2-c]pyrazol-2-yl]-ethanone] | 92.5% | 184 nM
CCC1c2cc(OC)c(OC)cc2-c2c1c(Nc1cccc(Br)c1)nn2C(=O)COCc1ccccc1 (centres unmarked) [Compound 519, 2-Benzyloxy-1-[3-(3-bromo-phenylamino)-4-ethyl-6,7-dimethoxy-4H-indeno[1,2-c]pyrazol-1-yl]-ethanone] | 97.5% | 139 nM
COc1cc2c(cc1OC)-c1c(c(Nc3cccc(F)c3)nn1C(=O)NCCN1CCCC1)C2 [Compound 520, 3-(3-Fluoro-phenylamino)-6,7-dimethoxy-4H-indeno[1,2-c]pyrazole-1-carboxylic acid (2-pyrrolidin-1-yl-ethyl)-amide] | 100% | 65.2 nM
COc1cc2c(cc1OC)-c1c(c(Nc3cccc(F)c3)nn1C(=O)NCCNCCO)C2 [Compound 523, 3-(3-Fluoro-phenylamino)-6,7-dimethoxy-4H-indeno[1,2-c]pyrazole-1-carboxylic acid [2-(2-hydroxy-ethylamino)-ethyl]-amide] | 98.5% | 193 nM
CNCCNC(=O)n1nc(Nc2cccc(F)c2)c2c1-c1cc(OC)c(OC)cc1C2 [Compound 524, 3-(3-Fluoro-phenylamino)-6,7-dimethoxy-4H-indeno[1,2-c]pyrazole-1-carboxylic acid (2-methylamino-ethyl)-amide] | 78% | 2480 nM
COc1cc2c(cc1OC)-c1c(c(Nc3cccc(F)c3)nn1C(=O)NCCNC(=O)C(C)C)C2 [Compound 525, 3-(3-Fluoro-phenylamino)-6,7-dimethoxy-4H-indeno[1,2-c]pyrazole-1-carboxylic acid (2-isobutyrylamino-ethyl)-amide] | 33% | 43200 nM
C=C(C)C(=O)OCCNC(=O)n1nc2c(c1Nc1cccc(F)c1)Cc1cc(OC)c(OC)cc1-2 [Compound 528, 2-Methyl-acrylic acid 2-{[3-(3-fluoro-phenylamino)-6,7-dimethoxy-4H-indeno[1,2-c]pyrazole-2-carbonyl]-amino}-ethyl ester] | 93.5% | 196 nM
COc1cc2c(cc1OC)-c1nn([C@@H]3O[C@H](C(=O)O)[C@@H](O)[C@H](O)[C@H]3O)c(Nc3cccc(F)c3)c1C2 [Compound 529, 6-[3-(3-Fluoro-phenylamino)-6,7-dimethoxy-4H-indeno[1,2-c]pyrazol-2-yl]-3,4,5-trihydroxy-tetrahydro-pyran-2-carboxylic acid] | 44% | 10600 nM
COc1cc2c(cc1OC)-c1c(c(Nc3cccc(F)c3)nn1C(=O)CC(=O)N1CCCC1)C2 [Compound 536, 1-[3-(3-Fluoro-phenylamino)-6,7-dimethoxy-4H-indeno[1,2-c]pyrazol-1-yl]-3-pyrrolidin-1-yl-propane-1,3-dione] | 88% | 436 nM
CCN(CC)C(=O)CC(=O)n1nc(Nc2cccc(F)c2)c2c1-c1cc(OC)c(OC)cc1C2 [Compound 537, N,N-Diethyl-3-[3-(3-fluoro-phenylamino)-6,7-dimethoxy-4H-indeno[1,2-c]pyrazol-1-yl]-3-oxo-propionamide] | 104% | 330 nM
COc1cc2c(cc1OC)C(C(C)C)c1c-2n[nH]c1Nc1cccc(Br)c1 (centres unmarked) [Compound 538, (3-Bromo-phenyl)-(4-isopropyl-6,7-dimethoxy-2,4-dihydro-indeno[1,2-c]pyrazol-3-yl)-amine] | 65% | –

Further lines, results first:

inhibition at 10 µM | IC50 | SMILES
30.5% | – | COC(=O)Cn1nc(Nc2cccc(F)c2)c2c1-c1cc(OC)c(OC)cc1C2 [Compound 509, [3-(3-Fluoro-phenylamino)-6,7-dimethoxy-4H-indeno[1,2-c]pyrazol-1-yl]-acetic acid methyl ester]
51% | 12500 nM | CCOC(=O)Cn1nc(Nc2cccc(F)c2)c2c1-c1cc(OC)c(OC)cc1C2 [Compound 511, [3-(3-Fluoro-phenylamino)-6,7-dimethoxy-4H-indeno[1,2-c]pyrazol-1-yl]-acetic acid ethyl ester]
92% | 183 nM | CCC1c2cc(OC)c(OC)cc2-c2n[nH]c(Nc3cccc(OC)c3)c21 (centres unmarked) [Compound 512, (4-Ethyl-6,7-dimethoxy-2,4-dihydro-indeno[1,2-c]pyrazol-3-yl)-(3-methoxy-phenyl)-amine]
85% | 240 nM | CCC1c2cc(OC)c(OC)cc2-c2c1c(Nc1cccc(Br)c1)nn2C(=O)COC (centres unmarked) [Compound 514, 1-[3-(3-Bromo-phenylamino)-4-ethyl-6,7-dimethoxy-4H-indeno[1,2-c]pyrazol-1-yl]-2-methoxy-ethanone]
68.5% | 10000 nM | COc1cc2c(cc1OC)-c1c(c(Nc3cccc(F)c3)nn1C(=O)NCCN)C2 [Compound 516, 3-(3-Fluoro-phenylamino)-6,7-dimethoxy-4H-indeno[1,2-c]pyrazole-1-carboxylic acid (2-amino-ethyl)-amide]
97% | 55.9 nM | COc1cc2c(cc1OC)-c1c(c(Nc3cccc(F)c3)nn1C(=O)NCCN1CCOCC1)C2 [Compound 521, 3-(3-Fluoro-phenylamino)-6,7-dimethoxy-4H-indeno[1,2-c]pyrazole-1-carboxylic acid (2-morpholin-4-yl-ethyl)-amide]
94% | 791 nM | COc1cc2c(cc1OC)-c1nn(C(=O)NCCN3CCOCC3)c(Nc3cccc(F)c3)c1C2 [Compound 522, 3-(3-Fluoro-phenylamino)-6,7-dimethoxy-4H-indeno[1,2-c]pyrazole-2-carboxylic acid (2-morpholin-4-yl-ethyl)-amide]
73% | 8090 nM | COc1cc2c(cc1OC)-c1c(c(Nc3cccc(F)c3)nn1C(=O)NCCNC(C)=O)C2 [Compound 526, 3-(3-Fluoro-phenylamino)-6,7-dimethoxy-4H-indeno[1,2-c]pyrazole-1-carboxylic acid (2-acetylamino-ethyl)-amide]
46.5% | 17500 nM | C=C(C)C(=O)OCCNC(=O)n1nc(Nc2cccc(F)c2)c2c1-c1cc(OC)c(OC)cc1C2 [Compound 527, 2-Methyl-acrylic acid 2-{[3-(3-fluoro-phenylamino)-6,7-dimethoxy-4H-indeno[1,2-c]pyrazole-1-carbonyl]-amino}-ethyl ester]
71.5% | 4150 nM | COC(=O)C(NC(=O)n1nc(Nc2cccc(F)c2)c2c1-c1cc(OC)c(OC)cc1C2)C(C)C (centres unmarked) [Compound 530, 2-{[3-(3-Fluoro-phenylamino)-6,7-dimethoxy-4H-indeno[1,2-c]pyrazole-1-carbonyl]-amino}-3-methyl-butyric acid methyl ester]
90% | 24 nM | COc1cc2c(cc1OC)-c1c(c(Nc3cccc(F)c3)nn1C(=O)CCC(N)=O)C2 [Compound 531, 4-[3-(3-Fluoro-phenylamino)-6,7-dimethoxy-4H-indeno[1,2-c]pyrazol-1-yl]-4-oxo-butyramide]
42% | – | COc1cc2c(cc1OC)-c1c(c(Nc3cccc(F)c3)nn1C(=O)NCCNC(=O)c1ccccc1)C2 [Compound 532, 3-(3-Fluoro-phenylamino)-6,7-dimethoxy-4H-indeno[1,2-c]pyrazole-1-carboxylic acid (2-benzoylamino-ethyl)-amide]
94% | 933 nM | COc1cc2c(cc1OC)-c1c(c(Nc3cccc(F)c3)nn1CC(N)=O)C2 [Compound 534, 2-[3-(3-Fluoro-phenylamino)-6,7-dimethoxy-4H-indeno[1,2-c]pyrazol-1-yl]-acetamide]
105% | 32.2 nM | COc1cc2c(cc1OC)-c1nn(C(=O)CC(=O)N3CCCC3)c(Nc3cccc(F)c3)c1C2 [Compound 535, 1-[3-(3-Fluoro-phenylamino)-6,7-dimethoxy-4H-indeno[1,2-c]pyrazol-2-yl]-3-pyrrolidin-1-yl-propane-1,3-dione]
47% | 14700 nM | COc1cc2c(cc1OC)C(C(C)C)c1c-2n[nH]c1Nc1cccc(Cl)c1 (centres unmarked) [Compound 540, (3-Chloro-phenyl)-(4-isopropyl-6,7-dimethoxy-2,4-dihydro-indeno[1,2-c]pyrazol-3-yl)-amine]
50% | 44200 nM | COc1cccc(Nc2[nH]nc3c2C(C(C)C)c2cc(OC)c(OC)cc2-3)c1 (centres unmarked) [Compound 541, (4-lsopropyl-6,7-dimethoxy-2,4-dihydro-indeno[1,2-c]pyrazol-3-yl)-(3-methoxy-phenyl)-amine]
